This assay has as its target T1, yeast α-glucosidase (Saccharomyces cerevisiae, UniProt P53341).
T1 construct: purchased Sigma-Aldrich
As to the kind of experiment: microplate-based α-glucosidase inhibition assay (pNPG substrate). The assay is classed as biochemical, Saccharomyces cerevisias. The settings on record: pH 6.8, 37°C, 30 min, means ± SD, n = 3. An excerpt:
Acetonitrile (HPLC grade) and acetic acid (HPLC grade) were purchased from Merck (Darmstadt, Germany), and methanol (AR grade) was purchased from Kaitong (Tianjin, China). Sodium carbonate was purchased from BDH Laboratory Supplies (Poole, Dorset, UK). α-Glucosidase type 1 ([…] from Saccharomyces cerevisias) and 4-nitrophenyl α-D-glucopyranoside (pNPG) were purchased from Sigma-Aldrich (St. Louis, MO, USA). Ultra-pure water was purified using a Millipore Milli Q-Plus system (Billerica, MA, USA). […] Silica gel (200–300 mesh) was purchased from Qingdao Haiyang Chemical Co. Ltd. (Qingdao, China). Macroporous absorption resin (D101) was purchased from Haiguang Chemical Industrial Co. (Tianjin, China). Sephadex LH-20 was purchased from GE Healthcare Bio-Sciences AB (Uppsala, Sweden), and the Millex® nylon membrane syringe filter was purchased from Millipore (Billerica, MA, USA).
The yeast α-glucosidase inhibitory activities of the four flavonoids were determined by a microplate-based method with a slight modification. […] The 4-nitrophenol absorption was measured at 405 nm. […] The inhibitory activity was calculated using the following formula: […]
where AS, ASB, AC, and ACB are the absorbances of sample, sample blank, control, and control blank, respectively.

We go through 2 compounds from PMC4016240, “Flavonoids with α-glucosidase inhibitory activities and their contents in the leaves of Morus atropurpurea” (Chinese Medicine, 2013).

Molecules are shown by their SMILES.

The term IC50 denotes the concentration needed to halve the response being measured. Higher therefore signals lower potency.

T1 sequence (P53341 whole entry): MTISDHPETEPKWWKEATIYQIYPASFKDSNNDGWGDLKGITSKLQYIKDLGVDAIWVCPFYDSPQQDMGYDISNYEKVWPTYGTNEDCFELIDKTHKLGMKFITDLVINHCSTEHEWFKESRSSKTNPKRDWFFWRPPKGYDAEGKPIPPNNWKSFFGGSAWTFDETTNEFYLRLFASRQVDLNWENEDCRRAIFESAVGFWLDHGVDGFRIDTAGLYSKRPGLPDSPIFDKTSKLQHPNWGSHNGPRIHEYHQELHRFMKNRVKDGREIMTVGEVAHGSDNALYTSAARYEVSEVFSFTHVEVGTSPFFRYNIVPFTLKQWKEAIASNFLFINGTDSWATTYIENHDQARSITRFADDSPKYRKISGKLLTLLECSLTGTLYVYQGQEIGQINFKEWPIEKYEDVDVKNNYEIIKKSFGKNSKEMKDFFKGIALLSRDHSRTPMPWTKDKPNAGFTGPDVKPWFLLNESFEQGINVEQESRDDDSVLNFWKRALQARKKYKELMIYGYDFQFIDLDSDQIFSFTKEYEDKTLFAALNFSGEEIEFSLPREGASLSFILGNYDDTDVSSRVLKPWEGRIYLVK

As for `C[C@@H]1O[C@@H](OC[C@H]2O[C@@H](Oc3c(-c4ccc(O)c(O)c4)oc4cc(O)cc(O)c4c3=O)[C@H](O)[C@@H](O)[C@@H]2O)[C@H](O)[C@H](O)[C@H]1O` [flavonoid 1, rutin], the IC50 was 13.2 µM. Next, `O=c1c(O[C@@H]2O[C@H](CO)[C@@H](O)[C@H](O)[C@H]2O)c(-c2ccc(O)c(O)c2)oc2cc(O)cc(O)c12` [flavonoid 2, isoquercetin]: 117 µM.
